Measured values published in ChEMBL document CHEMBL5724914, “Linking interpersonal differences in gut microbiota composition and drug biotransformation activity” (2024).

Columns and labels:
[1] = (§1) The drug is tested on Z-026 corresponding to metagenome with ENA study accession number: PRJEB37062 and ENA sample accession number: ERS12561825 for biotransformation under anaerobic condition. The drug concentrations were measured over 9 timepoints collected between 0 and 24 hours of incubation by liquid-chromatography-coupled mass spectrometry (LC–MS); settings: 2 µM
[2] = (§2) The drug is tested on Z-024 corresponding to pig gut metagenome with ENA study accession number: PRJEB37062 and ENA sample accession number: ERS12561823 for biotransformation under anaerobic condition. The drug concentrations were measured over 9 timepoints collected between 0 and 24 hours of incubation by liquid-chromatography-coupled mass spectrometry (LC–MS); settings: 2 µM
[3] = as §2, with “Z-020” for “Z-024”, “rabbit” for “pig”, “ERS12561819” for “ERS12561823”; settings: 2 µM
[4] = as §2, with “Z-011” for “Z-024”, “mouse” for “pig”, “ERS12561811” for “ERS12561823”; settings: 2 µM
[5] = as §1, with “Z-010” for “Z-026”, “ERS12561810” for “ERS12561825”; settings: 2 µM
[6] = as §1, with “Z-005” for “Z-026”, “ERS12561805” for “ERS12561825”; settings: 2 µM
[7] = as §2, with “WLS-310” for “Z-024”, “human” for “pig”, “ERS12561785” for “ERS12561823”; settings: 2 µM
[8] = as §2, with “WLS-220” for “Z-024”, “human” for “pig”, “ERS12561769” for “ERS12561823”; settings: 2 µM
[9] = as §2, with “WLS-090” for “Z-024”, “human” for “pig”, “ERS12561753” for “ERS12561823”; settings: 2 µM
[10] = as §2, with “WLS-082” for “Z-024”, “human” for “pig”, “ERS12561751” for “ERS12561823”; settings: 2 µM
[11] = as §2, with “WLS-069” for “Z-024”, “human” for “pig”, “ERS12561748” for “ERS12561823”; settings: 2 µM
[12] = as §2, with “WLS-052” for “Z-024”, “human” for “pig”, “ERS12561747” for “ERS12561823”; settings: 2 µM
[13] = as §2, with “WLS-039” for “Z-024”, “human” for “pig”, “ERS12561746” for “ERS12561823”; settings: 2 µM
[14] = as §2, with “WLS-027” for “Z-024”, “human” for “pig”, “ERS12561744” for “ERS12561823”; settings: 2 µM
[15] = human gut metagenome, 24 h, 2 µM
[16] = human gut metagenome, 24 h, 2 µM; remark: listed apart in the source
[17] = human gut metagenome, 24 h, 2 µM; remark: listed apart in the source
[18] = human gut metagenome, 24 h, 2 µM; remark: listed apart in the source
[19] = human gut metagenome, 24 h, 2 µM; remark: listed apart in the source
[20] = human gut metagenome, 24 h, 2 µM; remark: listed apart in the source

Measured: Bacterial Biotransformation
Note: call rule not given here.

CC(C)NCC(O)c1ccc(NS(C)(=O)=O)cc1 (stereo not given) [SOTALOL]
Compound NOT metabolized: [1] | [2] | [3] | [4] | [5] | [6] | [7] | [8] | [10] | [11] | [12] | [13] | [14] | [15] | [16] | [17] | [18] | [19] | [20]
Compound metabolized: [9]

CC(=O)OCC(=O)[C@@]1(O)[C@@H](C)C[C@H]2[C@@H]3CCC4=CC(=O)C=C[C@]4(C)[C@@]3(F)[C@@H](O)C[C@@]21C [BETAMETHASONE ACETATE]
Compound NOT metabolized: [18] | [19]
Compound metabolized: [1] | [2] | [3] | [4] | [5] | [6] | [7] | [8] | [9] | [10] | [11] | [12] | [13] | [14] | [15] | [16] | [17] | [20]

COc1ccc2c(c1OC)C(=O)O[C@@H]2[C@H]1c2c(cc3c(c2OC)OCO3)CCN1C [NOSCAPINE]
Compound NOT metabolized: [1] | [10] | [12] | [13] | [14] | [17] | [18]
Compound metabolized: [2] | [3] | [4] | [5] | [6] | [7] | [8] | [9] | [11] | [15] | [16] | [19] | [20]

CC(C)NCC(O)COc1ccc(CCOCC2CC2)cc1 (stereo not given) [BETAXOLOL]
Compound NOT metabolized: [1] | [3] | [4] | [5] | [6] | [8] | [10] | [11] | [12] | [13] | [14] | [15] | [17] | [18] | [19]
Compound metabolized: [2] | [7] | [9] | [16] | [20]

OCCOCCN1CCN(C2=Nc3ccccc3Sc3ccccc32)CC1 [QUETIAPINE]
Compound NOT metabolized: [1] | [3] | [4] | [5] | [6] | [7] | [10] | [11] | [12] | [13] | [15] | [17] | [18] | [19]
Compound metabolized: [2] | [8] | [9] | [14] | [16] | [20]

COCCc1ccc(OCC(O)CNC(C)C)cc1.COCCc1ccc(OCC(O)CNC(C)C)cc1.O=C(O)C(O)C(O)C(=O)O (stereo not given) [METOPROLOL TARTRATE]
Compound NOT metabolized: [1] | [2] | [3] | [4] | [6] | [8] | [10] | [11] | [12] | [13] | [14] | [15] | [17] | [18] | [19] | [20]
Compound metabolized: [5] | [7] | [9] | [16]

CCCc1nc2c(C)cc(-c3nc4ccccc4n3C)cc2n1Cc1ccc(-c2ccccc2C(=O)O)cc1
Compound metabolized: [1] | [2] | [3] | [4] | [5] | [6] | [7] | [8] | [9] | [10] | [11] | [12] | [13] | [14] | [15] | [16] | [17] | [18] | [19]
Compound NOT metabolized: [20]

COC1=CC(=O)C[C@@H](C)[C@]12Oc1c(Cl)c(OC)cc(OC)c1C2=O [GRISEOFULVIN]
Compound metabolized: [1] | [2] | [4] | [5] | [6] | [7] | [8] | [10] | [11] | [12] | [13] | [14] | [16] | [17] | [19] | [20]
Compound NOT metabolized: [3] | [9] | [15] | [18]
